What was measured:
[1] = test system: S. aureus POS 3663 (MRSA); test: PNA-FISH antibiotic susceptibility test, MRSA; format: cell-based; conditions: OX at concentrations as high as 8 μg/mL, 6 hr incubation in Phoenix AST broth, 10^5 CFU/ml, PNA-FISH fluorescence imaging
Protocol: (§1) S. aureus ATCC 29213 and S. aureus POS 3663 cultures with a concentration of 10^5CFU/ml were divided into six 400 μl subsamples and incubated with or without OX antibiotic for 0 or 6 hours in Phoenix AST broth as indicated in the following table.
(§2) Each subsample was placed into separate 1.5 mL microcentrifuge tubes following incubation. The tubes were centrifuged at 5000 rpm for 3 minutes and the supernatants were discarded. The bacteria were resuspended in […] of 80% ethanol and incubated for 5 minutes at room temperature and then centrifuged at 5000 rpm for 3 minutes. The supernatants were discarded and the bacteria were resuspended in one drop (approximately 25 μL) of the S. aureus-specific PNA-probe solution from the PNA FISH Kit and incubated for 1.5 hours at 55° C. After hybridization, 500 μL of the washing solution from the PNA FISH Kit was added and the tubes were incubated at 55° C. for 30 minutes. The tubes were centrifuged 10,000 rpm for 3 minutes and the supernatants were discarded. The bacterial pellets were resuspended in 150 μL PBS, and 40 μL of each subsample was transferred onto a 0.2 μm pore-size polycarbonate membrane using a flow-through device. The membrane was then transferred to a glass slide and covered with a cover slip. The membrane was then imaged using a fluorescence microscope.

[2] = test system: S. aureus ATCC 29213 (wild type); test: PNA-FISH antibiotic susceptibility test, wild type S. aureus; format: cell-based; conditions: OX 2 μg/mL and higher (2, 4, 8 μg), 6 hr incubation in Phoenix AST broth, 10^5 CFU/ml, PNA-FISH fluorescence imaging
Protocol: as §1, §2

In the case of Cc1onc(-c2ccccc2)c1C(=O)N[C@@H]1C(=O)N2[C@@H]1SC(C)(C)[C@@H]2C(=O)O [oxacillin], the “effect of oxacillin (OX) on the growth of resistant S. aureus POS 3663” value [1] is reported as “had no effect on the growth”, the “effect of oxacillin (OX) on the growth of resistant S. aureus POS 3663” value ([1]; listed as OX) is reported as “continues to grow” and the “effect of oxacillin (OX) on the growth of wild type S. aureus ATCC 29213” value [2] is reported as “killed the bacteria”. The “effect of oxacillin (OX) on the growth of wild type S. aureus ATCC 29213” value ([2]; listed as OX) was “most of the wild type S. aureus were killed”.

Reference: patent US20110269130A1, “Antibiotice Susceptibility Profiling Methods” (priority 2008, published 2011)
